{
  "source": "paper PMC12751141",
  "about": "“Disrupting α-Synuclein–ClpP interaction restores mitochondrial function and attenuates neuropathology in Parkinson’s disease models” (Molecular Neurodegeneration, 2025)",
  "key": {"αSyn–ClpP binding": {"system": "αSyn–ClpP binding", "assay": "Immunoprecipitation of recombinant ClpP and αSyn in vitro", "design": "species or system human", "conditions": "recombinant ClpP pre-incubated with peptide 30 min before αSyn; anti-ClpP IP; 3 independent experiments", "experimental": "The human recombinant WT- (#S-1001-2), A53T- (#S-1001-2), ΔNAC- (#S-1015-1) and ΔC- (#S-1012-1) αSyn and FITC-αSyn (S-1113-2) were purchased from rPeptide. The human recombinant αSyn pre-formed fibrils (PFF) (Type 1) (SPR-322) and ATTO-594-PFF (SPR-322B-A594) were purchased from StressMarq Biosciences (Bioactivity has been widely validated via various approaches, e.g. TEM, ThT).\n(§1) Cells or tissues were lysed in total lysis buffer (50mM Tris-HCl, pH 7.5, 150mM NaCl, 1% Triton X-100, and protease inhibitor). Total protein lysates (800 µg) were incubated with the indicated antibodies overnight at 4 °C followed by the addition of protein A/G beads (sc-2003, Santa Cruz) for 2 h at 4 °C. Various recombinant αSyn and Clpp (500 ng) were incubated in in vitro interaction buffer (20mM Tris-HCl pH 7.5, 100mM KCl, 2mM MgCl2 and 0.1% Triton-X100) for 30 min at room temperature, and then incubated with indicated antibodies overnight at 4 °C followed by the addition of protein A/G beads for 2 h at 4 °C. The beads with immuno-precipitates were pulled down at 4000 g and washed four times with total lysis buffer/in vitro interaction buffer in the presence of 0.1% Triton X-100 and were analyzed by western blot analysis."}, "ClpP–αSyn interaction": {"system": "ClpP–αSyn interaction", "assay": "Co-immunoprecipitation of ClpP with αSyn constructs in HEK293T cell lysates", "type": "cell-based", "conditions": "HEK293T lysates", "experimental": "Myc-tagged WT- and A53T- αSyn, Myc-tagged ClpP, and Flag-tagged WT- and S153A- ClpP plasmids were self-constructed as previously described (Ref). To construct truncated-αSyn plasmids, pcDNA3.1(-) was digested with BsteII and XbaI, and ΔN-, ΔC- and ΔNAC-αSyn was PCR-amplified using self-designed primers and inserted into the plasmid backbone. Cells were transfected with TransIT-2020 (Mirus Bio, LLC) following the manufacturer’s protocol.\nas §1\nShown are representative blots of 3 independent experiments. Quantification of the ratio of αSyn over ClpP (pull-down) (n = 4, two-tailed Student’s t test, data are mean ± SEM)."}, "ClpP": {"system": "ClpP", "experimental": "ClpP peptidase activity in vitro was measured as previously described (REF). Briefly, human recombinant ClpP (10 µM, obtained from Dr. Aaron Schimmer, Princes Margartet Cancer Centre, Canada) were incubated in the reaction buffer (50mM Tris PH 8.0, 200mM KCl, 1mM DTT, 2mM ATP) under 37 °C for 10 min. For co-incubation with αSyn, recombinant ClpP and WT or C-terminal truncated or NAC-domain truncated recombinant αSyn (S-1001-1, S-1012-1, S-1015-1, rPeptide) were pre-incubated for 30 min under room temperature. Fluorescent substrate of ClpP, ac-WLA-AMC (50 µM), were then added in the reaction buffer. The fluorescence signal was read using TECAN infinite M1000 up for 30 min at excitation/emission wavelength 345/445. ClpP peptidase activity were determined as the slope of the regression line.\n(C) In vitro ClpP peptidase activity was measured in presence of TAT or CS2 peptide (50/100 µM). The fluorescence intensity of ac-WLA-AMC (50 µM), a fluorogenic substrate of ClpP, was measured (0-30 min). Quantification of ClpP activity (n = 5, one-way ANOVA with Tukey’s post-hoc test; data are mean ± SEM)."}, "SH-SY5Y cells [1]": {"system": "SH-SY5Y cells", "assay": "Mitochondrial membrane potential (TMRM) in SH-SY5Y cells", "type": "cell-based", "conditions": "SH-SY5Y expressing Venus-αSyn, n = 8", "experimental": "Cells cultured on coverslips or 24-well plates were washed with DPBS and then incubated with 0.25 µM Tetramethylrhodamine, methyl ester (TMRM) (Invitrogen, T668), for 20 min at 37 °C. For cells cultured on coverslips, the images were visualized by microscope, and quantification of images was then carried out using NIH Fiji ImageJ software. At least 100 cells per group were counted in the analysis."}, "SH-SY5Y cells [2]": {"system": "SH-SY5Y cells", "assay": "Cellular ATP in SH-SY5Y cells", "type": "cell-based", "experimental": "Cells were seeded in 24-well plates, followed by the indicated treatment. The ATP level in each well was determined using the ATP assay kit according to the manufacturer’s procedures (Cayman Chemical, 700410)."}, "SH-SY5Y cells [3]": {"system": "SH-SY5Y cells", "assay": "Cytotoxicity by LDH in SH-SY5Y cells", "type": "cell-based", "experimental": "The bimolecular fluorescence was examined 24-hour after transfection (n = 3, one-way ANOVA with Tukey’s post-hoc test, scale bar = 30 μm). (D) Quantification of the concentration (ng/ml) of extracellular αSyn monomer and oligomer, and intracellular αSyn oligomer in Tet-inducible SH-SY5Y cells that were pre-treated with TAT or CS2 peptide 30-minute before adding doxycycline (Dox) to induce αSyn expression. The concentration of αSyn species was determined by ELISA (n = 4, one-way ANOVA with Tukey’s post-hoc test; data are mean ± SEM). (E) Representative images of Mito-SOX staining in SH-SY5Y cells that were pre-treated with TAT or CS2 peptide and transfected with split Venus-αSyn vectors. Mitochondrial ROS production was determined by Mito-SOX staining after 24-hour transfection (n = 4, two-tailed Student’s t test, scale bar = 30 μm).\n(G) Quantification of cytotoxicity examined by LDH assay in SH-SY5Y cells treated with indicated peptides (n = 3, one-way ANOVA with Tukey’s post-hoc test, data are mean ± SEM)."}},
  "data": [
    {"smiles": "CC(C)[C@H](NC(=O)CNC(=O)CNC(=O)CCCCCNC(=O)[C@H](CCCNC(=N)N)NC(=O)[C@H](CCCNC(=N)N)NC(=O)[C@H](CCCNC(=N)N)NC(=O)[C@H](CCC(N)=O)NC(=O)[C@H](CCCNC(=N)N)NC(=O)[C@H](CCCNC(=N)N)NC(=O)[C@H](CCCCN)NC(=O)[C@H](CCCCN)NC(=O)[C@H](CCCNC(=N)N)NC(=O)CNC(=O)[C@@H](N)Cc1ccc(O)cc1)C(=O)N[C@H](C(=O)N[C@H](C(=O)N[C@@H](C)C(=O)O)[C@@H](C)O)C(C)C", "note": "[CS2, TAT-C6-GGVVTA]", "values": [
      {"measurement": "αSyn–ClpP binding, recombinant", "setting": "αSyn–ClpP binding", "result": "significantly reduced αSyn–ClpP binding"},
      {"measurement": "ClpP binding to ΔC-αSyn", "setting": "ClpP–αSyn interaction; Flag-ClpP + Myc-ΔC-αSyn", "result": "abolished"},
      {"measurement": "ClpP binding to ΔN-αSyn", "setting": "ClpP–αSyn interaction; Flag-ClpP + Myc-ΔN-αSyn", "result": "abolished"},
      {"measurement": "ClpP binding to WT-αSyn", "setting": "ClpP–αSyn interaction; WT αSyn, CS2: 24-hour treatment", "result": "abolished"},
      {"measurement": "ClpP peptidase activity restoration, WT αSyn", "setting": "ClpP", "result": "restored ClpP peptidase activity"},
      {"measurement": "ClpP peptidase activity, peptide alone", "setting": "ClpP", "result": "neither TAT nor CS2 alone impaired ClpP activity"},
      {"measurement": "ClpP peptidase activity restoration, A53T αSyn", "setting": "ClpP; inhibition by A53T mutant αSyn, ac-WLA-AMC 50 µM, 0–30 min, representative of 4 experiments", "result": "restored ClpP peptidase activity"},
      {"measurement": "mitochondrial membrane potential", "setting": "SH-SY5Y cells [1]", "result": "rescued upon CS2 treatment"},
      {"measurement": "ATP content, αSyn-expressing cells", "setting": "SH-SY5Y cells [2]; SH-SY5Y expressing WT- or A53T-αSyn, n = 6", "result": "rescued upon CS2 treatment"},
      {"measurement": "ATP production, healthy cells", "setting": "SH-SY5Y cells [2]; healthy SH-SY5Y, n = 4", "result": "did not affect cell viability nor ATP production"},
      {"measurement": "cell death, A53T-αSyn", "setting": "SH-SY5Y cells [3]; SH-SY5Y stably overexpressing A53T-αSyn, 2-day treatment, 12-hour serum starvation, n = 4", "result": "significantly reduced cell death"},
      {"measurement": "cell death, WT-αSyn", "setting": "SH-SY5Y cells [3]; SH-SY5Y stably overexpressing WT-αSyn, 2-day treatment, 12-hour serum starvation, n = 4", "result": "significantly reduced cell death"},
      {"measurement": "cell viability, healthy cells", "setting": "SH-SY5Y cells [3]; healthy SH-SY5Y, 3 days, n = 3", "result": "did not affect cell viability"}
    ]}
  ]
}
